A word on the Ki: it is the equilibrium dissociation constant of an inhibitor or competing ligand from its target. Low readings indicate higher affinity, high ones lower affinity.

The text below walks through data of ChEMBL document CHEMBL1155179 (J Med Chem, 2009).

Format in all cases: tissue-based
For test [1], the target named is T1, Synaptic vesicular amine transporter (Rattus norvegicus, UniProt Q01827). Kind of test: Displacement of [3H]DTBZ from VMAT2 dihydrotetrabenazine binding site in rat brain synaptic vesicle by scintillation counting. For orientation: Displacement assays read how much labelled ligand stays bound in the presence of the test substance.
T1 sequence (Q01827 whole entry): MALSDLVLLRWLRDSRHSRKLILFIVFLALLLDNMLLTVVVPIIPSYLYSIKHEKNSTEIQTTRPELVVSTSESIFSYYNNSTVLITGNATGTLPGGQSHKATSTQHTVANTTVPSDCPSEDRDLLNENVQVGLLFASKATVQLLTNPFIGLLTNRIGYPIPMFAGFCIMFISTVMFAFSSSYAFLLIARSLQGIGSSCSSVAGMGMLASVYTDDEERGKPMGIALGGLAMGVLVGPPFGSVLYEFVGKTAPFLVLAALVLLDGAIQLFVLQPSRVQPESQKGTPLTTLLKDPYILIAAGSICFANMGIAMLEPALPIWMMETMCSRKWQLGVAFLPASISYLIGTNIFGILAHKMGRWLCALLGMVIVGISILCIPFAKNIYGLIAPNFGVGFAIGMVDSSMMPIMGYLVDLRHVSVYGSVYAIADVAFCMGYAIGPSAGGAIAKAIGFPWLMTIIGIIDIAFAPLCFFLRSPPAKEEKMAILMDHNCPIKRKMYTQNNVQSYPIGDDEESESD
Test [2] has as its target T1, Synaptic vesicular amine transporter. Kind of test: Inhibition of [3H]dopamine uptake at VMAT2 in rat brain synaptic vesicle by liquid scintillation spectroscopy.
Test [3] has as its target Synaptic vesicular amine transporter (Rattus norvegicus) (UniProt Q01827). Kind of test: Ratio of Ki for displacement of [3H]DTBZ from VMAT2 dihydrotetrabenazine binding site in rat brain synaptic vesicle to Ki for inhibition of [3H]dopamine uptake at VMAT2 in rat brain synaptic vesicle.

Synaptic vesicular amine transporter (Rattus norvegicus), sequence (Q01827 whole entry): as above

With `OC[C@@H](c1ccccc1)N1[C@H](CCc2ccccc2)CC[C@@H]1CCc1ccccc1`, the Ki in test [1] is 2.75 µM; in test [2], 0.14 µM. Moreover, the Ratio Ki in test [3] was 19.6.
The like results for `CN1[C@@H](Cc2ccccc2)CC[C@H]1Cc1ccccc1` were, in that order, 2.46 µM, 0.019 µM and 130.
In the same order, the values of `CN1[C@H](CCc2ccccc2)CC[C@H]1CCc1ccccc1` are 3.97 µM, 0.12 µM and 33.1.
Take `c1ccc(CC[C@H]2CC[C@H](CCc3ccccc3)N2)cc1`: the Ki worked out at 1.33 µM in test [1] and 0.035 µM in test [2]. In test [3], the Ratio Ki was 38.
In the same order, the values of `CN1[C@H](CCCc2ccccc2)CC[C@@H]1CCCc1ccccc1` are 2.78 µM, 0.12 µM and 23.2.
The like results for `OC[C@H](c1ccccc1)N1[C@H](CCc2ccccc2)CC[C@H]1CCc1ccccc1` were, in that order, 5.05 µM, 1.94 µM and 2.6.
The like results for `CN1[C@H](CCc2ccccc2)CC[C@@H]1CCc1ccccc1` were, in that order, 8.8 µM, 0.27 µM and 32.6.
Consider `c1ccc(CC[C@@H]2CC[C@H](CCc3ccccc3)N2)cc1`, for which the Ki in test [1] turned out to be 3.06 µM; in test [2], 0.029 µM. In test [3], the Ratio Ki was determined as 106.
The like results for `OC[C@H](c1ccccc1)N1[C@H](CCc2ccccc2)CC[C@@H]1CCc1ccccc1` were, in that order, 4.34 µM, 1.29 µM and 3.36.
The like results for `OC[C@@H](c1ccccc1)N1[C@@H](CCc2ccccc2)CC[C@@H]1CCc1ccccc1` were, in that order, 5.61 µM, 0.27 µM and 20.7.
The like results for `c1ccc(CCC[C@@H]2CC[C@H](CCCc3ccccc3)N2)cc1` were, in that order, 0.27 µM, 0.014 µM and 19.3.
In test [2], `c1ccc(CC[C@H]2CCC[C@@H](CCc3ccccc3)N2)cc1` showed a Ki of 0.023 µM. Moreover, the Ratio Ki in test [3] came to 100.
`c1ccc(CC[C@@H]2CC[C@@H](CCc3ccccc3)N2)cc1`: the Ki in test [1] was 3.4 µM; in test [2], 0.054 µM. Also, the Ratio Ki in test [3] was 63.
As for `CN1[C@@H](CCc2ccccc2)CC[C@@H]1CCc1ccccc1`, the results for the Ki in test [1] and in test [2] were 14.5 µM and 0.17 µM, respectively. In addition, the Ratio Ki in test [3] stood at 85.
In the same order, the values of `c1ccc(C[C@H]2CC[C@@H](Cc3ccccc3)N2)cc1` are 1.64 µM, 0.0093 µM and 176.
